In patent US20110039874A1, “MONOACYLGLYCEROL LIPASE INHIBITORS FOR MODULATION OF CANNABINOID ACTIVITY” (Northeastern University, priority 2007, published 2011) one finds melting point data, which are given here for 18 molecules.

Broadly, the melting point is the temperature, or range, at which the solid turns liquid.

Molecule `Oc1cccc(OCCCC(O)(O)C(F)(F)F)c1` (hydrate or solvate) [Compound 24.5, 1,1,1-Trifluoro-2,2-dihydroxy-5-[3-(hydroxy)phenoxy]pentane] returned a melting point of 76 to 77 °C.
The same measure for `O=S(=O)(F)CCCCCCCc1ccc(OCc2ccccc2)cc1` [Compound 13.1, 7-(4-Benzyloxy-phenyl)-heptanesulfonyl fluoride]: 35 to 38 °C; for `O=S(=O)(F)CCCCCc1ccc(OCc2ccccc2)cc1` [Compound 13.4, 5-(4-Benzyloxy-phenyl)-pentanesulfonyl fluoride]: 66 to 68 °C; for `O=S(=O)(F)CCCCCCCc1ccc(O)cc1` [Compound 14.1, 7-(4-Hydroxy-phenyl)-heptanesulfonyl fluoride]: 47 to 51 °C.
The same measure for `O=S(=O)(F)CCCCOc1ccccc1` [Compound 17, 4-Phenoxybutylsulfonyl fluoride]: 74 to 76 °C.
The same measure for `COS(=O)(=O)CCCCCCCc1ccc(OCc2ccccc2)cc1` [Compound 18, 7-(4-Benzyloxy-phenyl)-heptane-1-sulfonic acid methyl ester]: 57 to 59 °C; for `O=C(CCCOc1ccc(OCc2ccccc2)cc1)C(F)(F)F` [Compound 23.1, 1,1,1-Trifluoro-5-[4-(benzyloxy)phenoxy]-2-pentanone]: 59 to 61 °C.
In turn, `O=C(CCCCOc1ccc(OCc2ccccc2)cc1)C(F)(F)F` [Compound 23.2, 1,1,1-Trifluoro-6-[4-(Benzyloxy)phenoxy]-2-hexanone] registered a melting point of 95.5 to 96 °C.
Molecule `O=C(CCCCCOc1ccc(OCc2ccccc2)cc1)C(F)(F)F` [Compound 23.3, 1,1,1-Trifluoro-7-[4-(Benzyloxy)phenoxy]-2-heptanone] showed a melting point of 59 to 60 °C.
`O=C(CCCCCCOc1ccc(OCc2ccccc2)cc1)C(F)(F)F` [Compound 23.4, 1,1,1-Trifluoro-8-[4-(Benzyloxy)phenoxy]-2-octanone] gave a melting point of 82 to 83 °C.
`O=C(CCCOc1ccccc1OCc1ccccc1)C(F)(F)F` [Compound 23.8, 1,1,1-Trifluoro-5-[2-(Benzyloxy)phenoxy]-2-pentanone]: the melting point fell in the range of 50 to 51 °C.
As to `O=C(CCCCCOc1ccccc1OCc1ccccc1)C(F)(F)F` [Compound 23.10, 1,1,1-Trifluoro-7-[2-(Benzyloxy)phenoxy]-2-heptanone], the melting point was in the range of 31 to 32 °C.
In the case of `O=C(CCCCOc1ccccc1)C(F)(F)F` [Compound 23.12, 1,1,1-Trifluoro-6-phenoxy-2-hexanone] it was 50 to 51 °C; in that of `O=C(CCCCOc1ccc(O)cc1)C(F)(F)F` [Compound 24.2, 1,1,1-Trifluoro-6-[4-(hydroxy)phenoxy]-2-hexanone], 63 to 64 °C; in that of `O=C(CCCCCCOc1ccc(O)cc1)C(F)(F)F` [Compound 24.4, 1,1,1-Trifluoro-8-[4-(hydroxy)phenoxy]-2-octanone], 61 to 62 °C.
Turning to `O=C(CCCCOc1ccccc1O)C(F)(F)F` [Compound 24.9, 1,1,1-Trifluoro-6-[2-(hydroxy)phenoxy]-2-hexanone], the melting point fell in the range of 51 to 52 °C.
`Cc1nnc(C(=O)CCCCCCOc2ccc(OCc3ccccc3)cc2)o1` [Compound 65.2, 7-(4-Benzyloxy-phenoxy)-1-(5-methyl-1,3,4-oxadiazol-2-yl)-heptan-1-one]: the melting point fell in the range of 118 to 120 °C.
`Cc1nnc(C(=O)CCCCCCOc2ccc(O)cc2)o1` [Compound 66, 7-(4-Hydroxy-phenoxy)-1-(5-methyl-1,3,4-oxadiazol-2-yl)-heptan-1-one] showed a melting point of 134 to 135 °C.
